The Kd is a measure of binding affinity in units of concentration.

The test deals with Cytochrome P450 CYP3A4 (Homo sapiens, UniProt P08684). As to the kind of experiment: UV-VIS spectral titration. It counts as binding.
Cytochrome P450 CYP3A4, sequence (P08684 whole entry): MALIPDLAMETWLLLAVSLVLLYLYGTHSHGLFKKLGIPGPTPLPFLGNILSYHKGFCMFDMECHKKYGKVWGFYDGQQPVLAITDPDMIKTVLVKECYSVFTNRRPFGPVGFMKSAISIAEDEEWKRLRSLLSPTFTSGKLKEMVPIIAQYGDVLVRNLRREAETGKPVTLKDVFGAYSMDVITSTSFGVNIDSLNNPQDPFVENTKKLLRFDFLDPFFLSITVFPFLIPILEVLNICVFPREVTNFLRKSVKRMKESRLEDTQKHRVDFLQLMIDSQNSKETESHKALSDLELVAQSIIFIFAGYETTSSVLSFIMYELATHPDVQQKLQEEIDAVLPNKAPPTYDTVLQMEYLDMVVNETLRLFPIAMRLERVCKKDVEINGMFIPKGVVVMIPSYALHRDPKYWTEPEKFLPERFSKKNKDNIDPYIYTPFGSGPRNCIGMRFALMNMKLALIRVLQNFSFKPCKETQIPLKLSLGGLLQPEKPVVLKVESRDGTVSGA

Turning to `C[C@]12CC[C@H]3[C@@H]([C@H](C/C=C/C[C@@H]4CC5=CC(=O)CC[C@]5(C)[C@H]5CC[C@]6(C)[C@@H](O)CC[C@H]6[C@H]45)CC4=CC(=O)CC[C@@]43C)[C@@H]1CC[C@@H]2O` [trans-TST2], binding was characterised by a dissociation constant (Kd) of 8 µM. In turn, `C[C@]12CC[C@H]3[C@@H]([C@H](C/C=C\C[C@@H]4CC5=CC(=O)CC[C@]5(C)[C@H]5CC[C@]6(C)[C@@H](O)CC[C@H]6[C@H]45)CC4=CC(=O)CC[C@@]43C)[C@@H]1CC[C@@H]2O` [cis-TST2] returned a Kd of 0.3 µM.
